Assay results as given in publication PMC7917936, “Synthesis and Self-Assembly Properties of Bola-Amphiphilic Glycosylated Lipopeptide-Type Supramolecular Hydrogels Showing Colour Changes Along with Gel–Sol Transition” (International Journal of Molecular Sciences, 2021).

Assay: Measurement of the gel–sol transition temperature (Tgel), vial inversion method
Assay type: physicochemical
Details: hydrogel at CGC (0.19 wt%), 200 mM HEPES–NaOH buffer (pH 8.0), oil bath 25 to 85 °C, 1 °C/step, 1 min per step
Method: The gel–sol phase transition behaviour of the βGal–AAC–C6–F3 hydrogel (0.19 wt% (CGC) in 200 mM HEPES–NaOH buffer (pH 8.0)) was determined using the vial inversion method. The inverted gel in the vial was placed in an oil bath, which was heated from 25 °C to 85 °C, at a rate of 1 °C/step. The vial was immersed at each temperature for 1 min to equilibrate. The temperature, at which the sample completely dissolved, was defined as the Tgel value of the gel.

With `O=C(CCCCCCN1C(=O)C(Cl)=C(Nc2ccc(O[C@@H]3O[C@H](CO)[C@H](O)[C@H](O)[C@H]3O)cc2)C1=O)N[C@@H](Cc1ccccc1)C(=O)N[C@@H](Cc1ccccc1)C(=O)N[C@@H](Cc1ccccc1)C(=O)O` [βGal–AAC–C6–F3] as the compound, how does the “Tgel (gel-to-sol phase transition temperature)” value read?
Its value is 78 °C.
